From patent US20070060512A1, “Dipeptidyl-peptidase protected protein” (priority 2003, published 2007)
Where no end group is shown, it is not given here.

Assays:
[1] = compared to GLP-1; cited from earlier work
[2] = second N-terminal alanine replaced with serine; cited from earlier work
[3] = tested on: Zucker rats; assay: Glucose Tolerance Test in Zucker rats; assay type: in vivo, rat; settings: fasted Zucker rats, subcutaneous injection 30 minutes before glucose 1.5 mg/g body weight; versus untreated animals
Description: In this Example, modified GLP-1/mTf of the present invention is used as a therapeutic agent to treat diabetes. Modified GLP-1/mTf is administered to Zucker rats, a standard animal model for type II diabetes. Zucker rats have abnormally high blood glucose levels. […] Zucker rats are fasted overnight and then treated with H-GLP-1 or H-GLP-1 fused to transferrin (H-GLP-1/mTf). Thirty minutes after subcutaneous injection of H-GLP-1 or H-GLP-1/mTf, the animals are subjected to a Glucose Tolerance Test (GTT). For this test, fasted animals are fed glucose solution (1.5 mg/g body weight), and the blood glucose is measured at appropriate time intervals.

[4] = tested on: Zucker rats; assay: Fasting glucose of Zucker rats without glucose administration; assay type: in vivo, rat; settings: versus untreated animals
Source text: In a further experiment, modified H-GLP-1 or H-GLP-1/mTf is used to normalize the high fasting glucose of the Zucker rats without glucose administration.

[5] = target: T1, recombinant human DPP-IV (Homo sapiens, UniProt P27487); assay: Dipeptidylpeptidase-IV treatment of mTf fusion proteins, cyclic AMP stimulation assay in CHO-GLP1R cells; assay type: in vitro ADME; settings: 2 μM fusion protein, DPP-IV 1 μg/μL, room temperature 2 hours; cAMP in CHO-GLP1R cells
T1 construct: purchased R&D Systems
T1 sequence (P27487 whole entry, the tested form may be a part): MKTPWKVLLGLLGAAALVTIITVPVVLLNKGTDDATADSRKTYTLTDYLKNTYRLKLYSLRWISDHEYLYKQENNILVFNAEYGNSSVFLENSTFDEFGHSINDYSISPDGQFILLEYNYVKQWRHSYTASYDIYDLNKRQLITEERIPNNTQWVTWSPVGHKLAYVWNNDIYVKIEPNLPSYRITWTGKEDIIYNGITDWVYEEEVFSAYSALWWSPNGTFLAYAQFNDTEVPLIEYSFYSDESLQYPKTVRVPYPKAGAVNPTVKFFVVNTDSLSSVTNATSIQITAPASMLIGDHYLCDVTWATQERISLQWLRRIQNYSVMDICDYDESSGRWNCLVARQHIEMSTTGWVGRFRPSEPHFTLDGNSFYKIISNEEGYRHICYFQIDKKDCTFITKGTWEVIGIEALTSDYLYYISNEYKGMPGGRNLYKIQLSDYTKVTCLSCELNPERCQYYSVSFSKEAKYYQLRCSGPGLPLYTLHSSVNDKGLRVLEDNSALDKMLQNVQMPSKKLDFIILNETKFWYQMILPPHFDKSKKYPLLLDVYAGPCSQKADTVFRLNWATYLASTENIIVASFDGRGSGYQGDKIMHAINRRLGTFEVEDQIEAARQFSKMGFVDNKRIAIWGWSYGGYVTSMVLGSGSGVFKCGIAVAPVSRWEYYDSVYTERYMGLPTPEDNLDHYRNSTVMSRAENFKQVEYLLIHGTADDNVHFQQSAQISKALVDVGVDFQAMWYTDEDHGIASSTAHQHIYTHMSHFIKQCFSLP
Description: Control reactions excluding DPP-IV were set-up in parallel for each fusion protein. The digests were incubated at room temperature for 2 hours, at which time the reactions were diluted 20-fold in Krebs-Ringer buffer (Biosource International) supplemented with 1 mM IBMX (Calbiochem).
Tissue culture plates (24-well) were seeded with CHO-GLP1R cells at a density of 1×10^5 cells per/well in RPMI/10% FBS medium one day prior to treatment. The next day the cells appeared uniformly distributed with an approximate confluency of 60-80 percent. One day after seeding the culture plates the cells were washed twice with Krebs-Ringer buffer (KRB) followed by incubation in KRB for 1 hr at 37° C. to lower the intracellular levels of cAMP. This was followed by incubation for 10 minutes in KRB/IBMX to inhibit intracellular enzymes that break down cAMP. Dilutions of each test compound were prepared in KRB/IBMX and triplicate wells of CHO-GLP1R cells were treated with 0.15 ml of test compound per well for exactly 50 minutes at 37° C. The treatment was halted by washing the cultures two times with ice-cold phosphate-buffered saline. […]

Row | Compound | plasma stability [1] | insulinotropic action [2] | normalization of blood glucose level in Glucose Tolerance Test [3] | fasting blood glucose level [4] | resistance to DPP-IV [5]
1 | [Ser^8]GLP-1: GLP-1 analog in which the second N-terminal alanine is replaced with serine (Ritzel et al.) (HSEGTFTSDVSSYLEGQAAKEFIAWLVKGRG; Glucagon-like peptide 1(7-37); UniProt P01275 98-128, looked up, variant A8S) | increased plasma stability as compared to GLP-1 | did not impair the insulinotropic action | – | – | –
2 | CC[C@H](C)[C@H](NC(=O)[C@H](Cc1ccccc1)NC(=O)[C@H](CCC(=O)O)NC(=O)[C@H](CCCCN)NC(=O)[C@H](C)NC(=O)[C@H](C)NC(=O)[C@H](CCC(N)=O)NC(=O)CNC(=O)[C@H](CCC(=O)O)NC(=O)[C@H](CC(C)C)NC(=O)[C@H](Cc1ccc(O)cc1)NC(=O)[C@H](CO)NC(=O)[C@H](CO)NC(=O)[C@@H](NC(=O)[C@H](CC(=O)O)NC(=O)[C@H](CO)NC(=O)[C@@H](NC(=O)[C@H](Cc1ccccc1)NC(=O)[C@@H](NC(=O)CNC(=O)[C@H](CCC(=O)O)NC(=O)[C@H](C)NC(=O)[C@H](Cc1c[nH]cn1)NC(=O)[C@@H](N)Cc1c[nH]cn1)[C@@H](C)O)[C@@H](C)O)C(C)C)C(=O)N[C@@H](C)C(=O)N[C@@H](Cc1c[nH]c2ccccc12)C(=O)N[C@@H](CC(C)C)C(=O)N[C@H](C(=O)N[C@@H](CCCCN)C(=O)NCC(=O)N[C@@H](CCCNC(=N)N)C(=O)O)C(C)C [H-GLP-1] | – | – | faster normalization of blood glucose level | significant drop | –
3 | H-GLP-1/mTf: H-GLP-1(7-36) fused to modified transferrin (mTf), expressed in Saccharomyces from pREX0368 (HHAEGTFTSDVSSYLEGQAAKEFIAWLVKGR; also: fused to modified transferrin (mTf)) | – | – | faster normalization of blood glucose level | significant drop | more resistant to DPP-IV than GLP-1/mTf
